{
  "source": "patent US5853742A",
  "about": "“Cosmetic compositions containing lactate dehydrogenase inhibitors” (priority 1997, dated 1998)",
  "key": {"[1]": {"system": "Normal human epidermal keratinocytes (NHEK)", "assay": "Keratinocyte proliferation (DNA content, fluorometric)", "assay_type": "cell-based", "procedure": "Normal human epidermal keratinocytes (NHEK) derived from neonatal foreskin were used for all experiments. Media were purchased from Clonetics Corp., San Diego, Calif. Cell stocks frozen in passage 2 were grown in Keratinocyte Growth Medium (KGM) and passaged when 70-80% confluent. Cells were seeded in 96 well plates (Corning) at a density of 7500 cells/well in KGM. After 24 hours, cells were rinsed and dosed with test compounds in 200 μl of Keratinocyte Basal Medium (KBM). Plates were incubated for three days at 37° C., 5% CO2. Cell proliferation was estimated by assaying for DNA content by a fluorometric method described by Rago et al. (Analytical Biochemistry, 191:31-34, 1990). Medium was removed and cells were rinsed with phosphate buffered saline solution. 100 μl of sterile distilled water was added to each well and plates were frozen at -70° C. for one and a half hours. Plates were thawed for one hour at which time 100 μl of a 20 ug/ml solution of Bisbenzimide H33258 fluorochrome (Calbiochem Corp., La Jolla, Calif.) was added to each well. The fluorochrome was prepared just prior to use in 10 mM Tris, 1 mM EDTA, 4M NaCl, pH 7.4. Plates were read in a Millipore Cytofluor fluorescent plate reader to quantify DNA (excitation 360 nm, emission 460 nm). Percent increase over control was calculated from blank-corrected readings as (treated-untreated)/(untreated)*100%."}, "[2]": {"system": "Neonatal human dermal fibroblasts", "assay": "Collagen synthesis (secreted procollagen 1 immunoassay)", "assay_type": "cell-based", "conditions": "0.2 to 20 mM, 48 hours, serum-free medium", "description": "Neonatal human dermal fibroblasts were purchased from Clonetics Corp., San Diego, Calif. All materials for cell culture were purchased from Life Technologies, N.Y. Cells were maintained in DMEM with 10% fetal bovine serum and used in passages 5-10, Confluent 96-well plates containing fibroblasts were treated with test materials (0.2 to 20 mM) in serum-free medium for 48 hours. […] This was carried out in a BioDot SF apparatus according to the manufacturer's instructions (BioRad Labs, CA) and the blot was developed using a Vectastain Kit (PK6104, Vector Labs, CA) as per the manufacturer's directions. Color intensity was quantitated using an Ultroscan XL densitometer (Pharmacia LKB). Fold increase was calculated as (density of treated)/untreated."}},
  "note": "Where “and” joins values, the source holds several entries; their conditions need not be identical. Equal values may be shown once.",
  "data": [
    {"compound": "NC(=O)C(=O)O", "note": "[Oxamate]", "values": [
      {"measurement": "activation at 25 µM", "setting": "[1]; Homo sapiens, NHEK, 72 h, Table 3, oxamate 0.025 mM, read-out: % Increase Over Control (keratinocyte proliferation)", "value": 20, "unit": "%"},
      {"measurement": "activation at 313 µM", "setting": "[1]; Homo sapiens, NHEK, 72 h, Table 3, oxamate 0.313 mM, read-out: % Increase Over Control (keratinocyte proliferation)", "value": 18, "unit": "%"},
      {"measurement": "activation at 1250 µM", "setting": "[1]; Homo sapiens, NHEK, 72 h, Table 3, oxamate 1.25 mM, read-out: % Increase Over Control (keratinocyte proliferation)", "value": 28, "unit": "%"},
      {"measurement": "activation at 20000 µM", "setting": "[1]; Homo sapiens, NHEK, 72 h, Table 3, oxamate 20 mM, read-out: % Increase Over Control (keratinocyte proliferation)", "value": 0, "unit": "%"},
      {"measurement": "% Increase Over Control (keratinocyte proliferation)", "setting": "[1]; Table 3, oxamate 0.025 mM", "value": 19, "unit": "%"},
      {"measurement": "% Increase Over Control (keratinocyte proliferation)", "setting": "[1]; Table 3, oxamate 0.313 mM", "value": 32, "unit": "%"},
      {"measurement": "% Increase Over Control (keratinocyte proliferation)", "setting": "[1]; Table 3, oxamate 1.25 mM", "value": "24% and 40%"},
      {"measurement": "% Increase Over Control", "setting": "[1]; Table 11, oxamate 2.5 mM, pyruvate 0", "value": 0, "unit": "%"},
      {"measurement": "% Increase Over Control", "setting": "[1]; Table 11, oxamate 5.0 mM, pyruvate 0", "value": 0, "unit": "%"},
      {"measurement": "% Increase Over Control", "setting": "[1]; Table 11, oxamate 10 mM, pyruvate 0", "value": 0, "unit": "%"},
      {"measurement": "% Increase Over Control", "setting": "[1]; Table 11, oxamate 15 mM, pyruvate 0", "value": 0, "unit": "%"},
      {"measurement": "% Increase Over Control", "setting": "[1]; Table 11, oxamate 20 mM, pyruvate 0", "value": 0, "unit": "%"},
      {"measurement": "% Increase Over Control", "setting": "[1]; Table 12, oxamate 0.313 mM, malate 0", "value": 32, "unit": "%"},
      {"measurement": "% Increase Over Control", "setting": "[1]; Table 12, oxamate 0.625 mM, malate 0", "value": 19, "unit": "%"},
      {"measurement": "% Increase Over Control", "setting": "[1]; Table 12, oxamate 1.25 mM, malate 0", "value": 40, "unit": "%"},
      {"measurement": "% Increase Over Control", "setting": "[1]; Table 12, oxamate 2.5 mM, malate 0", "value": 25, "unit": "%"},
      {"measurement": "% Increase Over Control", "setting": "[1]; Table 12, oxamate 5.0 mM, malate 0", "value": 20, "unit": "%"},
      {"measurement": "% Increase Over Control", "setting": "[1]; Table 12, oxamate 10 mM, malate 0", "value": 0, "unit": "%"},
      {"measurement": "Maximum fold over Control (collagen synthesis)", "setting": "[2]", "value": 1.4, "unit": "fold"}
    ]}
  ]
}
